In patent US20210403435A1, “HERBICIDAL COMPOUNDS” (SYNGENTA CROP PROTECTION AG, priority 2018, published 2021):

How the values were obtained:
Test in all cases: Post-emergence efficacy, glasshouse, evaluated after 13 days
Format in all cases: in vivo
[1] = system: Chenopodium album (CHEAL); settings: Chenopodium album, 312 h; post-emergence application, 500 g/Ha, evaluated after 13 days; read-out: Control of weed species CHEAL (100=total damage to plant; 0=no damage to plant)
Method in brief: (§1)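 After 14 days' growth in pots, plants were treated by spray with compound diluted from a 50 g/l IF50 stock concentrate into 0.25% or 1% Empicol ESC70 + 1% ammonium sulphate. Thirteen days later, injury was scored 0–100.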

Setaria faberi (SETFA) = settings: Setaria faberi, 312 h; post-emergence application, 500 g/Ha, evaluated after 13 days; read-out: Control of weed species SETFA (100=total damage to plant; 0=no damage to plant)
Method in brief: as §1

[2] = system: Ipomoea hederacea (IPOHE); settings: Ipomoea hederacea, 312 h; post-emergence application, 500 g/Ha, evaluated after 13 days; read-out: Control of weed species IPOHE (100=total damage to plant; 0=no damage to plant)
Method in brief: as §1

Lolium perenne (LOLPE) = settings: Lolium perenne, 312 h; post-emergence application, 500 g/Ha, evaluated after 13 days; read-out: Control of weed species LOLPE (100=total damage to plant; 0=no damage to plant)
Method in brief: as §1

Eleusine indica (ELEIN) = settings: Eleusine indica, 312 h; post-emergence application, 500 g/Ha, evaluated after 13 days; read-out: Control of weed species ELEIN (100=total damage to plant; 0=no damage to plant)
Method in brief: as §1

[3] = system: Digitaria sanguinalis (DIGSA); settings: Digitaria sanguinalis, 312 h; post-emergence application, 500 g/Ha, evaluated after 13 days; read-out: Control of weed species DIGSA (100=total damage to plant; 0=no damage to plant)
Method in brief: as §1

[4] = system: Echinochloa crus-galli (ECHCG); settings: Echinochloa crus-galli, 312 h; post-emergence application, 500 g/Ha, evaluated after 13 days; read-out: Control of weed species ECHCG (100=total damage to plant; 0=no damage to plant)
Method in brief: as §1

[5] = system: Euphorbia heterophylla (EPHHL); settings: Euphorbia heterophylla, 312 h; post-emergence application, 500 g/Ha, evaluated after 13 days; read-out: Control of weed species EPHHL (100=total damage to plant; 0=no damage to plant)
Method in brief: as §1

[6] = system: Amaranthus palmeri (AMAPA); settings: Amaranthus palmeri, 312 h; post-emergence application, 500 g/Ha, evaluated after 13 days; read-out: Control of weed species AMAPA (100=total damage to plant; 0=no damage to plant)
Method in brief: as §1

SMILES | pest or weed control at 500 g/ha [1] [%] | pest or weed control at 500 g/ha (Setaria faberi (SETFA)) [%] | pest or weed control at 500 g/ha [2] [%] | pest or weed control at 500 g/ha (Lolium perenne (LOLPE)) [%] | pest or weed control at 500 g/ha (Eleusine indica (ELEIN)) [%] | pest or weed control at 500 g/ha [3] [%] | pest or weed control at 500 g/ha [4] [%] | pest or weed control at 500 g/ha [5] [%] | pest or weed control at 500 g/ha [6] [%]
O=C(O)CC[n+]1ccc(C(=O)NCC(F)(F)C(F)(F)F)cn1 [Compound A97] | 100 | 90 | 30 | 90 | 60 | 90 | 60 | 90 | 100
COCCNC(=O)c1cc[n+](CCCOS(=O)(=O)[O-])nc1 [Compound A138] | 70 | 80 | 60 | 60 | 60 | 70 | 30 | 60 | 30
O=C(O)CC[n+]1ccc(C(=O)N2CCOCC2)cn1 [Compound A29] | 90 | 90 | 50 | 50 | 90 | 90 | 90 | 100 | 100
CC(C)N(C(=O)c1cc[n+](CCC(=O)O)nc1)C(C)C [Compound A32] | 20 | 30 | 10 | 10 | 10 | 20 | 30 | 40 | 50
CCNC(=O)c1cc[n+](CC(C)(C)C(=O)O)nc1 [Compound A88] | 100 | 100 | 90 | 60 | 100 | 80 | 90 | 90 | 100
COCC(C)NC(=O)c1cc[n+](CCC(=O)O)nc1 (stereo not drawn) [Compound A132] | 100 | 100 | 40 | 90 | 100 | 100 | 90 | 70 | 100
CCCNC(=O)c1cc[n+](CCS(=O)(=O)[O-])nc1 [Compound A51] | 70 | 60 | 60 | 20 | 20 | 90 | 60 | 60 | 50
O=C(O)CC[n+]1ccc(C(=O)NCc2ccc(C(F)(F)F)cc2)cn1 [Compound A98] | 70 | 30 | 20 | 0 | 90 | 60 | 50 | 100 | 90
O=C(O)CC[n+]1ccc(C(=O)Nc2ccccc2)cn1 [Compound A33] | 80 | 60 | 30 | 70 | 90 | 60 | 60 | 50 | 100
CC(C)N(C(=O)c1cc[n+](CCS(=O)(=O)O)nc1)C(C)C [Compound A14] | 70 | 10 | 30 | 0 | 10 | 30 | 10 | 50 | 100
